Assay results taken from the NIST ThermoML archive (doi:10.1016/j.tca.2015.06.017).

Assay: xn = mol fraction of the nth substance listed
Conditions: Liquid, Vibrating tube method

CC(C)(C)Cl [2-chloro-2-methylpropane] + CCCCCCC
mass density [kg/m3]
Conditions	283.15 K	293.15 K
100 kPa, x2 = 0.0554	842.44	830.68
100 kPa, x2 = 0.1017	832.31	820.81
100 kPa, x2 = 0.2004	811.94	800.91
100 kPa, x2 = 0.3016	792.65	782.03
100 kPa, x2 = 0.4097	773.66	763.43
100 kPa, x2 = 0.498	759.27	749.33
100 kPa, x2 = 0.5983	744.02	734.42
100 kPa, x2 = 0.7017	729.43	720.16
100 kPa, x2 = 0.7995	716.55	707.61
100 kPa, x2 = 0.9032	703.79	695.15
100 kPa, x2 = 0.9482	698.49	689.98
2000 kPa, x2 = 0.0554	844.68	833.14
2000 kPa, x2 = 0.1017	834.48	823.24
2000 kPa, x2 = 0.2004	814.1	803.29
2000 kPa, x2 = 0.3016	794.78	784.22
2000 kPa, x2 = 0.4097	775.6	765.58
2000 kPa, x2 = 0.498	761.33	751.59
2000 kPa, x2 = 0.5983	745.93	736.51
2000 kPa, x2 = 0.7017	731.35	722.23
2000 kPa, x2 = 0.7995	718.47	709.61
2000 kPa, x2 = 0.9032	705.72	697.14
2000 kPa, x2 = 0.9482	700.41	691.94
5000 kPa, x2 = 0.0554	848.13	836.88
5000 kPa, x2 = 0.1017	837.91	826.9
5000 kPa, x2 = 0.2004	817.4	806.74
5000 kPa, x2 = 0.3016	797.97	787.77
5000 kPa, x2 = 0.4097	778.78	769.03
5000 kPa, x2 = 0.498	764.17	754.81
5000 kPa, x2 = 0.5983	748.83	739.75
5000 kPa, x2 = 0.7017	734.11	725.28
5000 kPa, x2 = 0.7995	721.17	712.57
5000 kPa, x2 = 0.9032	708.35	700.04
5000 kPa, x2 = 0.9482	703.02	694.81
7000 kPa, x2 = 0.0554	850.47	839.29
7000 kPa, x2 = 0.1017	840.22	829.3
7000 kPa, x2 = 0.2004	819.61	809.03
7000 kPa, x2 = 0.3016	800.1	789.87
7000 kPa, x2 = 0.4097	780.74	771.15
7000 kPa, x2 = 0.498	766.3	756.85
7000 kPa, x2 = 0.5983	750.75	741.66
7000 kPa, x2 = 0.7017	736.02	727.16
7000 kPa, x2 = 0.7995	722.99	714.5
7000 kPa, x2 = 0.9032	710.1	701.82
7000 kPa, x2 = 0.9482	704.76	696.6
10000 kPa, x2 = 0.0554	853.75	842.85
10000 kPa, x2 = 0.1017	843.46	832.92
10000 kPa, x2 = 0.2004	822.51	812.44
10000 kPa, x2 = 0.3016	803.09	793.26
10000 kPa, x2 = 0.4097	783.69	774.21
10000 kPa, x2 = 0.498	769.05	759.84
10000 kPa, x2 = 0.5983	753.62	744.65
10000 kPa, x2 = 0.7017	738.75	730.1
10000 kPa, x2 = 0.7995	725.53	717.31
10000 kPa, x2 = 0.9032	712.59	704.57
10000 kPa, x2 = 0.9482	707.21	699.31
20000 kPa, x2 = 0.0554	864	853.69
20000 kPa, x2 = 0.1017	853.55	843.51
20000 kPa, x2 = 0.2004	832.47	822.74
20000 kPa, x2 = 0.3016	812.54	803.2
20000 kPa, x2 = 0.4097	792.93	783.9
20000 kPa, x2 = 0.498	778.04	–
20000 kPa, x2 = 0.5983	762.35	–
20000 kPa, x2 = 0.7017	747.22	–
20000 kPa, x2 = 0.7995	733.81	–
20000 kPa, x2 = 0.9032	720.64	–
20000 kPa, x2 = 0.9482	715.18	–
30000 kPa, x2 = 0.0554	873.3	–
30000 kPa, x2 = 0.1017	862.73	–
30000 kPa, x2 = 0.2004	841.24	–
30000 kPa, x2 = 0.3016	821.19	–
30000 kPa, x2 = 0.4097	801.28	–
30000 kPa, x2 = 0.498	786.13	–
30000 kPa, x2 = 0.5983	770.17	–
30000 kPa, x2 = 0.7017	754.83	–
30000 kPa, x2 = 0.7995	741.14	–
30000 kPa, x2 = 0.9032	727.83	–
30000 kPa, x2 = 0.9482	722.3	–
40000 kPa, x2 = 0.0554	881.82	–
40000 kPa, x2 = 0.1017	870.96	–
40000 kPa, x2 = 0.2004	849.41	–
40000 kPa, x2 = 0.3016	829.08	–
40000 kPa, x2 = 0.4097	808.91	–
40000 kPa, x2 = 0.498	793.67	–
40000 kPa, x2 = 0.5983	777.41	–
40000 kPa, x2 = 0.7017	761.79	–
40000 kPa, x2 = 0.7995	747.96	–
40000 kPa, x2 = 0.9032	734.49	–
40000 kPa, x2 = 0.9482	728.9	–
50000 kPa, x2 = 0.0554	889.56	–
50000 kPa, x2 = 0.1017	878.68	–
50000 kPa, x2 = 0.2004	856.76	–
50000 kPa, x2 = 0.3016	836.39	–
50000 kPa, x2 = 0.4097	815.92	–
50000 kPa, x2 = 0.498	800.51	–
50000 kPa, x2 = 0.5983	784.09	–
50000 kPa, x2 = 0.7017	768.34	–
50000 kPa, x2 = 0.7995	754.42	–
50000 kPa, x2 = 0.9032	740.62	–
50000 kPa, x2 = 0.9482	734.97	–
60000 kPa, x2 = 0.0554	896.85	–
60000 kPa, x2 = 0.1017	885.94	–
60000 kPa, x2 = 0.2004	863.93	–
60000 kPa, x2 = 0.3016	843.17	–
60000 kPa, x2 = 0.4097	822.77	–
60000 kPa, x2 = 0.498	807.05	–
60000 kPa, x2 = 0.5983	790.42	–
60000 kPa, x2 = 0.7017	774.43	–
60000 kPa, x2 = 0.7995	760.28	–
60000 kPa, x2 = 0.9032	746.42	–
60000 kPa, x2 = 0.9482	740.73	–
65000 kPa, x2 = 0.0554	900.21	–
65000 kPa, x2 = 0.1017	889.29	–
65000 kPa, x2 = 0.2004	867.33	–
65000 kPa, x2 = 0.3016	846.38	–
65000 kPa, x2 = 0.4097	825.84	–
65000 kPa, x2 = 0.498	809.97	–
65000 kPa, x2 = 0.5983	793.31	–
65000 kPa, x2 = 0.7017	777.27	–
65000 kPa, x2 = 0.7995	763.11	–
65000 kPa, x2 = 0.9032	749.1	–
65000 kPa, x2 = 0.9482	743.43	–
